This note sets out measurements from patent publication US4104390A, “Thieno [2,3-c] and [3,2-c] pyridines” (Parcor, priority 1976, dated 1978).

The structures appear in SMILES notation. Read-outs that look alike come from different tables or passages of the source.

Data set [1] relates to carrageenin-induced localized edema. Briefly: Carrageenin-induced localized edema method. It is filed as in vivo. The note with it: Rattus norvegicus, po, rats, 100 mg/kg orally at -1, 0, 1 and 2.5 hours. The protocol: (a) Carrageenin-induced localized edema method
0.1 ml of a 1% carrageenin solution is injected in the metatarsal flexor muscles of the right hind limb of rats at time 0. The animals of the treated group are additionally orally administered 100 mg/kg of the test derivative, respectively one hour prior to injection of the phlogogenic agent, simultaneously with said injection, and then 1 hour and 2.5 hours thereafter. The determinations effected by means of a ROCH micrometer at times 0, 1 hour, 2 hours, 3 hours and 5 hours after carrageenin administration make it possible to determine, as a function of time, the percent anti-inflammatory activity with respect to the reference group.

Data set [2] deals with collagen-induced blood-platelet aggregation. Briefly: Collagen-induced blood-platelet aggregation. It is filed as in vivo, Wistar rats. The note with it: Rattus norvegicus, po; rats, 100 mg/kg orally, 3 hours after treatment, collagen (bovine tendon extract), with respect to control group; read-out: Percent inhibition of blood-platelet aggregation, Collagen. As for the experimental part:
(§1) Blood is taken from the jugular vein of Wistar rats. From this citrated blood, and after centrifugation, is reconstituted a plasma containing 600,000 ± 20,000 blood-platelets per ml which is used in all aggregation determinations.
(§2) 0.4 ml plasma is placed in a siliconized tube provided with a magnet bar, also siliconized. The tube is introduced into an aggregometer coupled with an apparatus for recording optical density variations. When light transmission has reached a stable value, 0.5 ml of a solution containing 10 μM A.D.P. (Adenosine-Di-Phosphate) is introduced into the tube.
(§3) Blood-platelet aggregation causes an increase of light transmission followed by a decrease subsequent to the deaggregation phase.
(§4) The maximal optical density variation thus determined characterizes the intensity of the aggregation.
The A.D.P. solution is substituted with a collagen solution (bovine tendon extract).
(§5) Different groups of 20 rats are used, each group being orally administered a test derivative at a dosage of 100 mg/kg.

A short description of data set [3]: LD50, intravenous route, mice. The note with it: mouse, in vivo.
Data set [4] has as its system ovalbumen-induced systemic edema. Briefly: Ovalbumen-induced systemic edema method. Conditions: Rattus norvegicus, po, rats, 100 mg/kg orally 1 hour before and with ovalbumen. It is filed as in vivo. The protocol: (b) Ovalbumen-induced systemic edema method
Simultaneous injection of 1 ml ovalbumen and 0.5 ml of a 1% aqueous Evans Blue solution is effected in rats. On the other hand, the animals of the treated group are administered orally 100 mg/kg of the test derivative one hour prior to ovalbumen administration and simultaneously with said administration. The intensity of the phenomenon thus induced is scored according to a scale from 1 to 5 depending on the progress of the inflammatory syndrome. The mean intensity of the edem and the percent decrease of the edema reaction with respect to the control group are thus determined as a function of time.

Data set [5] concerns A.D.P.-induced blood-platelet aggregation. The data set can be described thus: A.D.P.-induced blood-platelet aggregation. It is filed as in vivo, Wistar rats. The note with it: Rattus norvegicus, po; rats, 100 mg/kg orally, 3 hours after treatment, 10 μM A.D.P. solution, with respect to control group; read-out: Percent inhibition of blood-platelet aggregation, A.D.P. The protocol:
as §1, §2, §3, §4, §5

Where [6] appears, read: 1 hour after carrageenin, read-out: Percent anti-inflammatory activity after 1 hour.
The mark [7] stands for this setting: 2 hours after carrageenin, read-out: Percent anti-inflammatory activity after 2 hours.
[8] abbreviates: 3 hours after carrageenin, read-out: Percent anti-inflammatory activity after 3 hours.
[9] abbreviates: 5 hours after carrageenin, read-out: Percent anti-inflammatory activity after 5 hours.
[10] abbreviates: 2 hours after ovalbumen, read-out: Percent anti-inflammatory activity after 2 hours.
Where [11] appears, read: 3 hours after ovalbumen, read-out: Percent anti-inflammatory activity after 3 hours.

`CC1NCc2sccc2C1c1ccccc1` (stereo not drawn) [derivative n°1, 5-Methyl-4-phenyl-4,5,6,7-tetrahydro-thieno[2,3-c]pyridine]: the inhibition in vivo at 100 mg/kg in data set [1] (setting [6]) worked out at 37%; in data set [1] (setting [7]), 43%; in data set [1] (setting [8]), 45%; in data set [1] (setting [9]), 47%; in data set [4] (setting [10]) it was 47%; in data set [4] (setting [11]) it was 54%. Further, the inhibition at 100 mg/kg in data set [2] stood at 96.2%; in data set [5], 64.9%. Moreover, in data set [3], the LD50 at 24 h came out at 63 mg/kg.
In the case of `c1ccc(C2CNCc3sccc32)cc1` (stereo not drawn) [derivative n°3, 4-Phenyl-4,5,6,7-tetrahydro-thieno[2,3-c]pyridine], the inhibition in vivo at 100 mg/kg amounted to 41% in data set [1] (setting [6]); 46% in data set [1] (setting [7]); 50% in data set [1] (setting [8]); 51% in data set [1] (setting [9]); 52% in data set [4] (setting [10]); 59% in data set [4] (setting [11]). Besides, the inhibition at 100 mg/kg turned out to be 95.6% in data set [2] and 64.1% in data set [5]. The same compound had an LD50 at 24 h in data set [3] of 69 mg/kg.
For `CN1Cc2sccc2C(c2ccccc2)C1` (stereo not drawn) [derivative n°5, 6-Methyl-4-phenyl-4,5,6,7-tetrahydro-thieno[2,3-c]pyridine], the inhibition in vivo at 100 mg/kg in data set [1] (setting [6]) is 37%; in data set [1] (setting [7]) it was 45%; in data set [1] (setting [8]), 50%; in data set [1] (setting [9]) it was 51%; in data set [4] (setting [10]), 44%; in data set [4] (setting [11]), 51%. In addition, the results for the inhibition at 100 mg/kg in data set [2] and in data set [5] were 93.8% and 63.6%, respectively. The compound also came in with an LD50 at 24 h in data set [3] of 61 mg/kg.
